{
  "source": "ChEMBL document CHEMBL1201862",
  "about": "“PubChem BioAssay data set” (2004)",
  "key": {"[1]": {"target": "FAD-linked sulfhydryl oxidase ALR (Homo sapiens, UniProt P55789)", "sequence (P55789 whole entry)": "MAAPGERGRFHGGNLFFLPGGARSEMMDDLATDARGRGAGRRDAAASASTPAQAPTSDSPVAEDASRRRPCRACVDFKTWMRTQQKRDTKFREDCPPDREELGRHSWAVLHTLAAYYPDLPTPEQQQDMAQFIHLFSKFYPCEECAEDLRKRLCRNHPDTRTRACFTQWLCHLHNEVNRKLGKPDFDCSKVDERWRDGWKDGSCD", "test": "ALR-catalysed DTT oxidation blockers – biochemical, H2O2 detection, luminescence, cherry-pick, dose response (AID 493248)"}, "[2]": {"target": "Mu-type opioid receptor (Homo sapiens, UniProt P35372)", "sequence (P35372 whole entry)": "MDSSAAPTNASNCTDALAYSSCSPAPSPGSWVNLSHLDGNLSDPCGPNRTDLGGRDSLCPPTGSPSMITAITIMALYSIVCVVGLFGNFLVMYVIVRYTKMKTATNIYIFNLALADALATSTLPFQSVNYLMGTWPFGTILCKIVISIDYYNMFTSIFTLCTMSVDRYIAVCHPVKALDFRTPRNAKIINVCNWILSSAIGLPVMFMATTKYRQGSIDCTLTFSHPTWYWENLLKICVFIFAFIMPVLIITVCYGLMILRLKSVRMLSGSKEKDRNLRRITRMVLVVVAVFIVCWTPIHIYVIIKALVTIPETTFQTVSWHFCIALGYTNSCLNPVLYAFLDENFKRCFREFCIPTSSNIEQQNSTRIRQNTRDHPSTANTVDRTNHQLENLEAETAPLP", "assay_type": "functional, cell-based"}, "[3]": {"target": "5-hydroxytryptamine receptor 2A (Mus musculus, UniProt P35363)", "sequence (P35363 whole entry)": "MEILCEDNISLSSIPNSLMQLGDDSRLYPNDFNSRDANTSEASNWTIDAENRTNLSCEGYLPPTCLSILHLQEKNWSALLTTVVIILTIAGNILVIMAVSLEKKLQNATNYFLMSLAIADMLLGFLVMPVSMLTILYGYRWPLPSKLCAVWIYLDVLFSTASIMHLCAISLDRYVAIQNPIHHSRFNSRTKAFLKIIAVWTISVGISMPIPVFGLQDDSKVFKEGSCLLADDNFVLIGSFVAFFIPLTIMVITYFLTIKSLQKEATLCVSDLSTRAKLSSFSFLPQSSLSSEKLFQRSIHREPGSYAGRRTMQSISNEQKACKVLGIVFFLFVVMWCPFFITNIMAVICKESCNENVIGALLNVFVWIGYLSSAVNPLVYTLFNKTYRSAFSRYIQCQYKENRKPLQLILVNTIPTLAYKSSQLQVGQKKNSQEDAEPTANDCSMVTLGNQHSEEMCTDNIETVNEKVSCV", "assay_type": "functional, cell-based"}, "[4]": {"test": "blockers of HIV-1 envelope-mediated cell-cell fusion – cherry-pick, dose response (AID 652057)", "assay_type": "functional, cell-based"}, "[5]": {"test": "off-target signal loss in HeLa-CEM21 co-culture – HeLa F-luc CTL cells, cherry-picked, counter-screen for HIV-1 Env fusion inhibitor project, dose response (AID 652040);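 also: potency for signal decrease marking cytotoxic or nonspecific inhibition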", "assay_type": "functional, cell-based"}, "[6]": {"test": "blockers of HIV-1 ZM109 envelope-driven cell-cell fusion – HeLa effector, CEM target cells, luciferase, cherry-pick, dose response (AID 652058)", "assay_type": "functional, cell-based"}, "[7]": {"test": "HIV-1 AD8 envelope cell-cell fusion blockers – cherry-pick, dose response (AID 652062);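 also: potency is for inhibitors of fusion seen as a drop in luminescence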", "assay_type": "functional, cell-based"}, "[8]": {"test": "viability loss in CEM21 cells – cell-based, CellTiter-Glo luminescence, cherry-picked, cytotoxicity control for viral fusion inhibitor project, dose response (AID 652042);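 also: potency for signal decrease meaning cytotoxicity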", "assay_type": "functional"}, "[9]": {"test": "general mammalian cell viability loss – activator set, cherry-pick, cytotoxicity control for miR-122 modulator project, dose response (AID 720690);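 also: HEK293T human cells scored for general mammalian cytotoxicity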", "assay_type": "functional, cell-based"}, "[10]": {"test": "general mammalian cell viability loss – inhibitor set, cherry-pick, set 2, cytotoxicity control for miR-122 modulator project, dose response (AID 720697)", "assay_type": "functional, cell-based"}, "[11]": {"target": "Tyrosine-protein phosphatase non-receptor type 5 (Homo sapiens, UniProt P54829)", "sequence (P54829 whole entry)": "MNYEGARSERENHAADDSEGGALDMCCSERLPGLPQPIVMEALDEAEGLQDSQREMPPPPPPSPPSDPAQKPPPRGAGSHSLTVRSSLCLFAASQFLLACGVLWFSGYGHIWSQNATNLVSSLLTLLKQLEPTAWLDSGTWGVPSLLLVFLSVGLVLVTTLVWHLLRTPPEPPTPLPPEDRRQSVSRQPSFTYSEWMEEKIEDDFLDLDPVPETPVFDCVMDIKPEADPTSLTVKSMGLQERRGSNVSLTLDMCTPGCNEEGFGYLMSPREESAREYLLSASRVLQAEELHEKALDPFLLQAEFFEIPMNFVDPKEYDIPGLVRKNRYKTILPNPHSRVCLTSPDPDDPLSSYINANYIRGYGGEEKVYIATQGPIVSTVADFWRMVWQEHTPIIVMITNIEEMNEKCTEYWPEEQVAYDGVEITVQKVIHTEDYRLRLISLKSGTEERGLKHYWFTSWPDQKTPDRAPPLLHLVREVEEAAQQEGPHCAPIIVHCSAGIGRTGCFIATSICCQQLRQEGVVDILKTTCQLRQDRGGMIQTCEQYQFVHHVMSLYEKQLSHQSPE", "test": "PTPN5 enzyme inhibition – biochemical, fluorescence intensity, uHTS hits, confirmation (AID 602372)", "assay_type": "functional", "conditions": "read-out: IC50_Mean"}, "[12]": {"target": "Tyrosine-protein phosphatase non-receptor type 11 (Homo sapiens, UniProt Q06124)", "sequence (Q06124 whole entry)": "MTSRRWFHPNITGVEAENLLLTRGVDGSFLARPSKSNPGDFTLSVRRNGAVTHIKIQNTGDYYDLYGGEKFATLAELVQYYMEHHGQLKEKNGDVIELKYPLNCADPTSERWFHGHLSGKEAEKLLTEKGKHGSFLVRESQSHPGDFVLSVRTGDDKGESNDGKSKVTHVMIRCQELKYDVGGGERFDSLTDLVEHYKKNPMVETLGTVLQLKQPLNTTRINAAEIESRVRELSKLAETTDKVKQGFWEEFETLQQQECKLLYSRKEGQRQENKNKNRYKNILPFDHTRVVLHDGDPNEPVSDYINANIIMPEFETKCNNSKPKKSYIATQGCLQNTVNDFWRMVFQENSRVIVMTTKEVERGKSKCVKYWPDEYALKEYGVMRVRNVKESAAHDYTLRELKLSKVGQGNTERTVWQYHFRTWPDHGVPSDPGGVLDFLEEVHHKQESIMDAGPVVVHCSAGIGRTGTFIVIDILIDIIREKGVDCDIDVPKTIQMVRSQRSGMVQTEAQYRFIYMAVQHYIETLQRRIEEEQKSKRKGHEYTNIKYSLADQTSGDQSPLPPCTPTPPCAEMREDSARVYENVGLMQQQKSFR", "test": "PTPN11 enzyme inhibitors – biochemical, selectivity assay for STEP inhibitor project, dose response (AID 602367)", "assay_type": "functional", "conditions": "read-out: IC50_Mean"}, "[13]": {"target": "T1, Low molecular weight phosphotyrosine protein phosphatase (Homo sapiens, UniProt P24666)", "T1 sequence (P24666 whole entry)": "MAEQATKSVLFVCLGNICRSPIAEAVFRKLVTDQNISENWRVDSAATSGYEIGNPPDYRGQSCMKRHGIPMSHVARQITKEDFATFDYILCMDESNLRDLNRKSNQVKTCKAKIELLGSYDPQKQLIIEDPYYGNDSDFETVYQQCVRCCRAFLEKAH", "assay_type": "functional", "conditions": "read-out: IC50_Mean"}, "[14]": {"target": "Dual specificity protein phosphatase 3 (Homo sapiens, UniProt P51452)", "sequence (P51452 whole entry)": "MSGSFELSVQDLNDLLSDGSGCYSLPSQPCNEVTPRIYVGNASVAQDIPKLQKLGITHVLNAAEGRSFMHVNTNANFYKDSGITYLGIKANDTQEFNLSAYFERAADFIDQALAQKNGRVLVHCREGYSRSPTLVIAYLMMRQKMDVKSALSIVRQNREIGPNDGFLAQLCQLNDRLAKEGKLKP", "test": "VHR phosphatase inhibition, dose response, selectivity assay for STEP inhibitor project, biochemical (AID 602374)", "assay_type": "functional", "conditions": "read-out: IC50_Mean"}, "[15]": {"target": "T1, Low molecular weight phosphotyrosine protein phosphatase", "assay_type": "functional", "conditions": "read-out: IC50_Mean", "remark": "listed apart in the source"}, "[16]": {"target": "T2, Corticotropin-releasing factor receptor 2/Corticotropin-releasing factor-binding protein (Homo sapiens, UniProt P24387+Q13324)", "T2 sequence (Q13324 whole entry)": "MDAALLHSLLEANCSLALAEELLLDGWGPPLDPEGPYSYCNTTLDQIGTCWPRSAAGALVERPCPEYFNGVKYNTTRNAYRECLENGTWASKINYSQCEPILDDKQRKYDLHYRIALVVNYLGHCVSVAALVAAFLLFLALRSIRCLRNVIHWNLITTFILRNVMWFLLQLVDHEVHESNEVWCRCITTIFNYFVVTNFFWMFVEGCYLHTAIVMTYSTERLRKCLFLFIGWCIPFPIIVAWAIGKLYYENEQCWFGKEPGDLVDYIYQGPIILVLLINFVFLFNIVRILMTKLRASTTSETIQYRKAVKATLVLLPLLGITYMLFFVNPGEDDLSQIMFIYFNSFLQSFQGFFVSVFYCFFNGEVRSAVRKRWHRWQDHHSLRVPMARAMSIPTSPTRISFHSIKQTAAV", "T2 sequence (P24387 whole entry)": "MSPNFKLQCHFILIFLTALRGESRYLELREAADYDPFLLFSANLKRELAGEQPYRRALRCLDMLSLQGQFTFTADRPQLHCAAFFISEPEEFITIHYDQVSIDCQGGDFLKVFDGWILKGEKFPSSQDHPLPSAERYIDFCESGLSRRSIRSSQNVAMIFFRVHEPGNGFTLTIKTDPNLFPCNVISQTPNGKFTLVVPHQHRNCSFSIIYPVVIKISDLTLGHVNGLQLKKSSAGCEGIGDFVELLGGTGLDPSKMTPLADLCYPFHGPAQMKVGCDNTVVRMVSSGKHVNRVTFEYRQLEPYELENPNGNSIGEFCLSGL", "test": "Dose Response confirmation of uHTS hits for small molecule antagonists of the CRF-binding protein and CRF-R2 receptor complex.", "assay_type": "functional", "conditions": "read-out: IC50_Mean"}, "[17]": {"target": "T2, Corticotropin-releasing factor receptor 2/Corticotropin-releasing factor-binding protein", "test": "activators of CRF receptor 2 with binding protein – uHTS hits, confirmation (AID 602473)", "assay_type": "functional", "conditions": "read-out: EC50_Mean"}, "[18]": {"test": "OVCAR-3 cell viability loss – plate reader, dry powder samples, PAX8 inhibitor project, dose response (AID 743044)", "assay_type": "functional, cell-based"}, "[19]": {"test": "IGROV1 cell killing – plate reader, dry powder samples, PAX8 inhibitor project, dose response (AID 743043)", "assay_type": "functional, cell-based", "conditions": "IGROV-1"}, "[20]": {"target": "Paired box protein Pax-8 (Homo sapiens, UniProt Q06710)", "sequence (Q06710 whole entry)": "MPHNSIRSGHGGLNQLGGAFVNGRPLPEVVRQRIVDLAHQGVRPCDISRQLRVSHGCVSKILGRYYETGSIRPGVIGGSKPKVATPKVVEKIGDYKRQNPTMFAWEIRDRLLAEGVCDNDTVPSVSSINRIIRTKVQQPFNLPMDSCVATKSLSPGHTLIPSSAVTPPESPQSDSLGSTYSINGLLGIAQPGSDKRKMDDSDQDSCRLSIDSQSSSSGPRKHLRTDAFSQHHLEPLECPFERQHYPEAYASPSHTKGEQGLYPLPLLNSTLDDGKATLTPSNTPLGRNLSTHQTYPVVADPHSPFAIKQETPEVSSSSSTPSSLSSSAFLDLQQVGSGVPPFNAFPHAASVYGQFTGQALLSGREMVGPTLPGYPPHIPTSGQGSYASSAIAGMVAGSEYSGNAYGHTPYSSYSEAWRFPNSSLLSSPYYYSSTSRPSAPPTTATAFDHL", "test": "PAX8 transcriptional activity inhibition in RMG-I – RMG-I cells, luciferase, cherry-pick, dose response (AID 687027);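 also: luciferase reporter driven by Pax8 target thyroperoxidase promoter measured by SteadyGlo luminescence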", "assay_type": "functional, cell-based"}, "[21]": {"target": "Histone-lysine N-methyltransferase NSD2 (Homo sapiens, UniProt O96028)", "sequence (O96028 whole entry)": "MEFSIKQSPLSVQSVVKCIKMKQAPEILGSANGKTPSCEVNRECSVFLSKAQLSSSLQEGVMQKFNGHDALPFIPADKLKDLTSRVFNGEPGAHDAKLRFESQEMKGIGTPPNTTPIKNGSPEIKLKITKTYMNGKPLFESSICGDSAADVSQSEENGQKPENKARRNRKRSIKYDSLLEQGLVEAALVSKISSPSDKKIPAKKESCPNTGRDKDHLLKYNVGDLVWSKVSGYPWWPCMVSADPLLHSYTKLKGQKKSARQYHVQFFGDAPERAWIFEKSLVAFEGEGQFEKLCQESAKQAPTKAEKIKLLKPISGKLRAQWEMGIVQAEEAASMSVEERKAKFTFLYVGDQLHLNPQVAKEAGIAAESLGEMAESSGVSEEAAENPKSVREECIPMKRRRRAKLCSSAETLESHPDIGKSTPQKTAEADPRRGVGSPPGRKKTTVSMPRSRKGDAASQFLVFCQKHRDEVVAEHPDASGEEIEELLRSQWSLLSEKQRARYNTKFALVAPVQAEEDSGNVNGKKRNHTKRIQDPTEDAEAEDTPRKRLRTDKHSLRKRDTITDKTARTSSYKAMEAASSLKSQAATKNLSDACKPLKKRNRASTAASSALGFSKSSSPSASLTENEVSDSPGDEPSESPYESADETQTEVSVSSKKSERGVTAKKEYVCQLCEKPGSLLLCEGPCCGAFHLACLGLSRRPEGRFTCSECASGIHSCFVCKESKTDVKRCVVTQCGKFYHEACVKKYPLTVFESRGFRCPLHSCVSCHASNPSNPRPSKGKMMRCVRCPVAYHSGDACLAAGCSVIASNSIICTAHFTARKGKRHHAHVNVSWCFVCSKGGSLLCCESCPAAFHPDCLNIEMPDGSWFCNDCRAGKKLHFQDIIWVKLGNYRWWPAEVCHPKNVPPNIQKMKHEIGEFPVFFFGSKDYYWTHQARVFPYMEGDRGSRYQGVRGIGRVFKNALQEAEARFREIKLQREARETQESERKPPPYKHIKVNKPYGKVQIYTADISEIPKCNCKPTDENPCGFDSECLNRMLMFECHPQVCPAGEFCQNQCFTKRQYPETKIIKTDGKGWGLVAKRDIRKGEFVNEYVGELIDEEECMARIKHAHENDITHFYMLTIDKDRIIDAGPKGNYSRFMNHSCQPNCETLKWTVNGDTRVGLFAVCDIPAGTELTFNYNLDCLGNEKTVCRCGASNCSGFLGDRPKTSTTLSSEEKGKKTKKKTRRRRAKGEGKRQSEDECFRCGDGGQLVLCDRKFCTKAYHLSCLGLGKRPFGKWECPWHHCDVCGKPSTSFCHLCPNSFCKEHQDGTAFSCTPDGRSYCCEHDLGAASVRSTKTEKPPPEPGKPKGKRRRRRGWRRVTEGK", "assay_type": "biochemical"}, "[22]": {"test": "SNU-C1 cell viability reduction, dose response, CellTiter-Glo luminescence (AID 1117323)", "assay_type": "functional, cell-based"}, "[23]": {"target": "T3, Nuclear receptor subfamily 0 group B member 1 (Homo sapiens, UniProt P51843)", "T3 sequence (P51843 whole entry)": "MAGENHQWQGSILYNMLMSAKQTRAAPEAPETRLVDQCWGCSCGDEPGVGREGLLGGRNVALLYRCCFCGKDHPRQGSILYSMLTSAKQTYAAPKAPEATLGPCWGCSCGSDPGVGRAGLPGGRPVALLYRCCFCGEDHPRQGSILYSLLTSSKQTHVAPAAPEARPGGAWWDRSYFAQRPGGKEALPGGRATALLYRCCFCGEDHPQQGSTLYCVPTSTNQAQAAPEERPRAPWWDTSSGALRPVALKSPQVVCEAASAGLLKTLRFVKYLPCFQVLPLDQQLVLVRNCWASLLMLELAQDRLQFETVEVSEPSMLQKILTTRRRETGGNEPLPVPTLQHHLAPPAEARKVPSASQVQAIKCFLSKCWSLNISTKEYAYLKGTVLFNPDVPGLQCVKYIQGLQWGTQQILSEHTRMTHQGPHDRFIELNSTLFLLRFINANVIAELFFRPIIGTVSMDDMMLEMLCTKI", "assay_type": "functional, cell-based"}, "[24]": {"test": "cells", "assay_type": "functional, cell-based"}, "[25]": {"test": "cytotoxicity toward Colo320 cells – cell-based, CellTiter-Glo luminescence, IC50, dose response (AID 1117334)", "assay_type": "functional", "conditions": "COLO 320"}, "[26]": {"test": "RKO cell viability reduction, dose response, CellTiter-Glo luminescence (AID 1117322)", "assay_type": "functional"}, "[27]": {"test": "cytotoxicity toward HCT116 cells – cell-based, CellTiter-Glo luminescence, IC50, dose response (AID 1117332)", "assay_type": "functional", "conditions": "HCT-116"}, "[28]": {"test": "cytotoxicity toward HT-29 cells – cell-based, CellTiter-Glo luminescence, IC50, dose response (AID 1117330)", "assay_type": "functional"}, "[29]": {"test": "rise of 2N DNA cells, HeLa – IC50, dose response (AID 1117349)", "assay_type": "functional, cell-based"}, "[30]": {"test": "CellTiter-Glo luminescence survival assay, SW480 colon tumor line, concentration-response curve, half-maximal inhibitory concentration (AID 1117338)", "assay_type": "functional"}, "[31]": {"test": "rise of 4N DNA cells, HeLa – IC50, dose response (AID 1117351)", "assay_type": "functional, cell-based"}},
  "note": "The source made the active and inactive calls.",
  "data": [
    {"compound": "COc1cc(Br)cc(CN2CCN(c3ncccn3)CC2)c1O", "values": [
      {"measurement": "AC50", "setting": "[1]", "value": "> 100 µM (inactive)"},
      {"measurement": "EC50", "setting": "[2]", "value": "92.5 µM (inactive)"},
      {"measurement": "EC50", "setting": "[3]", "value": "1.02 µM (active)"}
    ]},
    {"compound": "COc1ccc(CN2CCN(C(=O)c3cccs3)CC2)cc1", "values": [
      {"measurement": "EC50", "setting": "[2]", "value": "92.5 µM (inactive)"},
      {"measurement": "EC50", "setting": "[3]", "value": "76.1 µM (inactive)"}
    ]},
    {"compound": "COC(=O)[C@]12C[C@H](CC(=O)NCC3CCCCC3)C(=O)N(CCC3=CCCCC3)C1=C[C@H](C(C)(C)C)O[C@@H]2C", "values": [
      {"measurement": "AC50", "setting": "[4]", "value": "2.45 µM (active)"},
      {"measurement": "AC50", "setting": "[5]", "value": "3.68 µM (active)"},
      {"measurement": "AC50", "setting": "[6]", "value": "3.66 µM (active)"},
      {"measurement": "AC50", "setting": "[7]", "value": "3.6 µM (active)"},
      {"measurement": "AC50", "setting": "[8]", "value": "21.5 µM (active)"}
    ]},
    {"compound": "C[C@H]1CN([C@@H](C)CO)S(=O)(=O)c2ccc(-c3ccccc3F)cc2O[C@@H]1CN(C)Cc1cccnc1", "values": [
      {"measurement": "AC50", "setting": "[9]", "value": "23 µM (active)"}
    ]},
    {"compound": "C[C@@H]1CN([C@@H](C)CO)C(=O)c2cc(NC(=O)NC3CCCCC3)ccc2O[C@@H]1CN(C)C(=O)Nc1ccc2c(c1)OCO2", "values": [
      {"measurement": "AC50", "setting": "[10]", "value": "9.33 µM (active)"}
    ]},
    {"compound": "O=[N+]([O-])c1ccc(O)c(Nc2ncnc3ccccc23)c1", "values": [
      {"measurement": "IC50", "setting": "[11]", "value": "13.3 µM (active)"},
      {"measurement": "IC50", "setting": "[12]", "value": "1.98 µM (active)"},
      {"measurement": "IC50", "setting": "[13]", "value": "16.1 µM (active)"},
      {"measurement": "IC50", "setting": "[14]", "value": "1.77 µM (active)"},
      {"measurement": "IC50", "setting": "[15]", "value": "7.06 µM (active)"},
      {"measurement": "IC50", "setting": "[16]", "value": "> 47.1 µM (inactive)"},
      {"measurement": "EC50", "setting": "[17]", "value": "> 53 µM (inactive)"}
    ]},
    {"compound": "C[C@H]1CCCCO[C@H](CN(C)Cc2ccc(C(F)(F)F)cc2)[C@@H](C)CN([C@@H](C)CO)C(=O)c2cc(NC(=O)c3ccccc3)ccc2O1", "values": [
      {"measurement": "AC50", "setting": "[18]", "value": "21.2 µM (active)"},
      {"measurement": "AC50", "setting": "[19]", "value": "36.4 µM (active)"},
      {"measurement": "AC50", "setting": "[20]", "value": "8.95 µM (active)"}
    ]},
    {"compound": "Nc1ccc2nn(-c3cc([N+](=O)[O-])ccc3O)nc2c1", "values": [
      {"measurement": "AC50", "setting": "[21]", "value": "> 20 µM (inactive)"}
    ]},
    {"compound": "COC(=O)Nc1nc2ccc(C(=O)C3CC3)cc2[nH]1", "note": "[CYCLOBENDAZOLE]", "values": [
      {"measurement": "IC50", "setting": "[22]", "value": "> 20 µM (inactive)"},
      {"measurement": "IC50", "setting": "[23]", "value": "> 67.5 µM (inactive)"},
      {"measurement": "IC50", "setting": "[24]", "value": "> 67.5 µM (inactive)"},
      {"measurement": "IC50", "setting": "[25]", "value": "0.156 µM (active)"},
      {"measurement": "IC50", "setting": "[26]", "value": "0.162 µM (active)"},
      {"measurement": "IC50", "setting": "[27]", "value": "0.174 µM (active)"},
      {"measurement": "IC50", "setting": "[28]", "value": "1.68 µM (active)"},
      {"measurement": "IC50", "setting": "[29]", "value": "0.417 µM (active)"},
      {"measurement": "IC50", "setting": "[30]", "value": "> 20 µM (inactive)"},
      {"measurement": "IC50", "setting": "[31]", "value": "0.416 µM (active)"}
    ]}
  ]
}
